Active and inactive are the calls of the source. The calls are words filed in the database; no cut-off is given here.
Columns and labels:
[1] = Inhibition of serum deprivation-induced ROS level in vascular endothelial cells at 30 ug/ml after 24 hrs relative to control; format: functional, Homo sapiens, Endothelial cell
[2] = system: Endothelial cell; experiment: Prevention of FGF2 deprivation-induced reduction of vascular endothelial cell viability after 48 hrs by MTT assay; format: functional, cell-based; details: Homo sapiens
[3] = Inhibition of FGF2 deprivation-induced vascular endothelial cell apoptosis assessed as apoptotic cell proportion at 40 ug/ml after 24 hrs by TUNEL assay; format: functional, Homo sapiens; design: scale not given: the % may be the effect or the level left
[4] = Inhibition of FGF2 deprivation-induced integrin beta-4 expression in vascular endothelial cells at 40 ug/ml after 24 hrs relative to control; format: functional, Homo sapiens, Endothelial cell
[5] = system: Endothelial cell; experiment: Prevention of serum deprivation-induced reduction of vascular endothelial cell viability after 24 hrs by MTT assay; format: functional, cell-based; details: Homo sapiens
[6] = system: Endothelial cell; experiment: Inhibition of DNA fragmentation in vascular endothelial cells at 40 ug/ml after 24 hrs; format: functional, cell-based; details: Homo sapiens
[7] = Inhibition of FGF2 deprivation-induced ROS level in vascular endothelial cells at 30 ug/ml after 24 hrs relative to control; format: functional, Homo sapiens, Endothelial cell
[8] = Inhibition of serum deprivation-induced integrin beta-4 expression in vascular endothelial cells at 40 ug/ml after 24 hrs relative to control; format: functional, Homo sapiens, Endothelial cell
[9] = system: Endothelial cell; experiment: Prevention of serum deprivation-induced reduction of vascular endothelial cell viability after 48 hrs by MTT assay; format: functional, cell-based; details: Homo sapiens
[10] = system: Endothelial cell; experiment: Prevention of FGF2 deprivation-induced reduction of vascular endothelial cell viability after 24 hrs by MTT assay; format: functional, cell-based; details: Homo sapiens
[11] = Inhibition of serum deprivation-induced vascular endothelial cell apoptosis assessed as apoptotic cell proportion at 40 ug/ml after 24 hrs by TUNEL assay; format: functional, Homo sapiens; design: scale not given: the % may be the effect or the level left

**Q.** Which Activity [1] does the source give for `O=C1OC(COc2ccccc2[N+](=O)[O-])CC1Cc1ccccc1` (stereo unspecified) here?
**A.** 7.95

**Q.** What about the Activity [2] of the same compound?
**A.** Dose-dependent effect

**Q.** And the Activity [3]?
**A.** 9.89%

**Q.** And the Activity [4]?
**A.** 33.8

**Q.** And the Activity [5]?
**A.** Dose-dependent effect

**Q.** What about the Activity [6] of the same compound?
**A.** Active

**Q.** And the Activity [7]?
**A.** 7.95

**Q.** What about the Activity [8] of the same compound?
**A.** 33.8

**Q.** And the Activity [9]?
**A.** Dose-dependent effect

**Q.** And the Activity [10]?
**A.** Dose-dependent effect

**Q.** And the Activity [11]?
**A.** 9.89%

From ChEMBL document CHEMBL1138394, “A novel butyrolactone derivative inhibited apoptosis and depressed integrin beta4 expression in vascular endothelial cells” (2007)
